Assay results as given in US10828372B2, “Compositions and methods for the inhibition of fibrosis” (WISCONSIN ALUMNI RESEARCH FOUNDATION, priority 2017, dated 2020).
“And” between values parts separate entries of the source, which are not always exact repeats. Equal values may be shown once. Read-outs that look alike come from different tables or passages of the source. Where no end group is shown, it is not given here.

Tests used:
[1] = test system: Alexa 488-labeled human plasma FN; assay: Matrix Assembly in vitro Assay (MAA), A488-FN deposition by AH1F fibroblasts; type: cell-based; conditions: 24 hours, viability-normalized fluorescence, n=4, FUD run alongside each conjugate
Procedure: Matrix Assembly Assay: The matrix assembly assay was conducted in the 96-well plate format as described in the art. AH1F human skin fibroblast cells resuspended in 2% fetal bovine serum were added to each well for a density of 60,000 cells per well. A 1 hr incubation period at 37° C. followed to allow cell adhesion and spreading. FUD, PEG-FUD, or PEG-mFUD were added to each well following incubation. Immediately, Alexa Fluor® 488 fluorescence labeled human plasma fibronectin (A488-FN) was then added to each well for a final FN concentration of 11 μg/mL. The cells were then incubated for 24 hours at 37° C. Non-assembled FN was removed from each well by washing with Hank's Balanced Salt Solution (HBSS) containing Ca^2+ and Mg^2+. The well volume was restored to 60 μL with HBSS and a fluorescence reading from the bottom of each well was taken using a Synergy™ H1 (Biotek) plate reader (excitation: 485 nm, Emission: 538 nm). Cell viability was quantified using CellTiter-Glo® cell viability assay using the manufacturer's protocol. A 30 μL aliquot of HBSS was removed from each well and was replaced with 30 μL of the luminescence reagent prepared shortly beforehand. Luminescence was quantified using the same plate reader. The average of fluorescence values of a no A488FN or inhibitor control group were routinely subtracted from the readings of each well and were normalized using each well's corresponding luminescence value. Lastly, the cell viability normalized fluorescence values were expressed as a percentage of the 0 nM drug control group. The final results were processed using Graphpad Prism 7.0 software. IC50 values were extracted using a four-parameter dose-response curve function. Student's t test was used to determine significance of differences among peptides at a given drug concentration.
The PEG-FUD FN fibrillogenesis inhibitory performance was evaluated in vitro using the matrix assembly assay (MAA). The methodology of this assay is depicted in FIG. 8. The MAA quantifies ECM deposition of exogenous AlexaFluor® 488-labeled FN (A488FN) by a confluent monolayer of fibroblasts after an incubation period by measuring fluorescence of deposited FN. In this study, the performance of PEG-FUD peptides was compared to that of FUD and the PEG-mFUD control peptide using the AH1F human foreskin fibroblast cell line.

[2] = test system: AlexaFluor 488-plasma fibronectin (A488-FN); assay: Microtiter exogenous plasma fibronectin matrix assembly assay (AH1F fibroblasts); type: cell-based, human; conditions: for inhibition of fibronectin fibrillogenesis: concentrations up to 20 μM
Procedure: Microtiter fibronectin matrix assembly assays: Exogenous plasma fibronectin matrix assembly assay: Binding and incorporation of AlexaFluor® 488-plasma fibronectin (A488-FN) to fibroblast monolayers (human foreskin fibroblasts, AH1F cells was carried out using methods known in the art. Briefly, fibroblasts (60000 per well) were allowed to adhere and spread for 2 hours in microtiter plates in 2% fetal calf serum (FCS)-containing DMEM. Peptides or modulators to be tested were added followed by 28 nM A488-FN. Cell monolayers with or without peptides and A488FN were incubated overnight at 37° C. with 5% CO2. Cell monolayers in microwells were washed with PBS or HBSS containing Ca^2+, Mg^2+. Fluorescence in 96-well plates was read using a microplate reader using bottom-readout capabilities at 485 nm excitation and 525 nm emission with 20 nm bandwidths. To estimate cell viability per well after the washes and measurement of fluorescence, an equal volume of luminescence reagent (Cell Titer-Glo®) was added followed by quantification of luminescence. Fluorescence of wells to which A488FN had not been added, i.e. intrinsic fluorescence of the cell monolayer was subtracted from fluorescence values of wells containing ligand. Data is presented respectively for fibronectin fibrillogenesis or cell viability as percent of fluorescence or luminescence values for wells with no peptides. Microplate microscopy was used to ascertain that fluorescence measurements correspond to fibrillary fibronectin.
To determine whether PEG-FUD retained its ability to inhibit fibronectin fibrillogenesis, PEG-FUD and FUD were compared in cell-based fibronectin matrix assembly assays. The ability of PEG-FUD to inhibit the incorporation of exogenous fibronectin derived from plasma and also of fibronectin endogenously produced by the cultured cells was measured, since fibrosis is likely to contain fibronectin from both sources. Shown in FIG. 12 is the level of fibrils formed from exogenously added A488-FN fibrils in the presence of increasing amounts FUD or PEG-FUD. FIGS. 13 and 14 show endogenous EDA+-fibronectin fibrillogenesis in human fibroblast and human proximal tubular epithelial cells, respectively. In all fluorescence panels, it is evident that PEG-FUD is as efficient as FUD at inhibiting fibronectin assembly dose-dependently with an IC50 of approximately 30 nM. As previously reported, cell viability is negligibly affected by FUD, and PEG-FUD behaves almost identically. There was an approximately 20% decrease in fibroblast viability at the highest concentration of FUD tested (500 nM) with PEG-FUD retaining fibroblast viability almost at 100%. […] Human proximal tubular epithelial cell viability was retained at approximately 100% with treatment by both FUD and PEG-FUD.
Having established the suitability of PEG-FUD as inhibitor of FN fibrillogenesis, a mutated form of FUD, mFUD, was tested as a control peptide. mFUD was PEGylated as described above and the conjugate tested in the exogenous A488-FN binding assay as described for FIG. 1A. […] A maximum concentration of 20 μM was tested because it approximates the concentration used in vivo, both in this study and in the liver fibrosis study.

[3] = target: T1, 70K N-terminal domain of FN (Homo sapiens, UniProt P02751); conditions: background statement; cited from earlier work
T1 construct: specifically to the 70K N-terminal domain of FN involved in fibrillogenesis

[4] = Bleomycin model: PEG-FUD organ accumulation (Western blot, ex vivo fluorescence imaging); type: in vivo, mouse; conditions: day 3-13 s.c. injection, bleomycin-injured vs uninjured (NS) lungs
Procedure: Separately, on day three post-bleomycin treatment, another animal set was treated with a single SC dose of PEG-FUD mixed with 25% Cy5-fluorophore labeled PEG-FUD or fully unlabeled PEG-FUD control (12.5 mg/kg). These mice were sacrificed seven days post-bleomycin treatment and their lungs, kidneys and livers imaged ex vivo using the fluorescence protocol on In Vivo Imaging System.
Western blot: Homogenized lung tissue was lysed for protein using 5% SDS/5 M Urea lysing buffer. The lysates were sonicated and boiled for 5 min prior to being subject to electrophoresis on polyacrylamide gels at 400 V for 2 hours and transferred at 100 V for 2.5 hours. Membranes were blotted with in-house made anti-FUD antibody produced in rabbit (0.7 μg/ml suspended in 2% bovine serum albumin) or β-actin housekeeping antibody produced in mouse (Sigma-Aldrich, 2 μg/ml suspended in 2% bovine serum albumin) and corresponding HRP-conjugated secondary antibody (1:3000). Blots were developed using an enhanced chemiluminescence (ECL) reaction (GE) and imaged on GE LAS4000 chemiluminescence imager to obtain images below the saturated threshold. […]
In Vivo Imaging System: Lungs, livers and kidneys of mice treated with bleomycin or NS and a single dose of SC Cy5-PEG-FUD or unlabeled PEG-FUD were imaged using the fluorescence protocol in the In Vivo Imaging System. […]

[5] = exogenous A488-FN, doses up to 20 μM, read-out: IC50 of fibrillogenesis inhibition
[6] = exogenous A488-plasma fibronectin, human fibroblasts, doses up to 500 nM, read-out: IC50 of fibronectin assembly inhibition

AlexaFluor 488-plasma fibronectin (A488-FN), sequence (P02751 32-608 limits assumed): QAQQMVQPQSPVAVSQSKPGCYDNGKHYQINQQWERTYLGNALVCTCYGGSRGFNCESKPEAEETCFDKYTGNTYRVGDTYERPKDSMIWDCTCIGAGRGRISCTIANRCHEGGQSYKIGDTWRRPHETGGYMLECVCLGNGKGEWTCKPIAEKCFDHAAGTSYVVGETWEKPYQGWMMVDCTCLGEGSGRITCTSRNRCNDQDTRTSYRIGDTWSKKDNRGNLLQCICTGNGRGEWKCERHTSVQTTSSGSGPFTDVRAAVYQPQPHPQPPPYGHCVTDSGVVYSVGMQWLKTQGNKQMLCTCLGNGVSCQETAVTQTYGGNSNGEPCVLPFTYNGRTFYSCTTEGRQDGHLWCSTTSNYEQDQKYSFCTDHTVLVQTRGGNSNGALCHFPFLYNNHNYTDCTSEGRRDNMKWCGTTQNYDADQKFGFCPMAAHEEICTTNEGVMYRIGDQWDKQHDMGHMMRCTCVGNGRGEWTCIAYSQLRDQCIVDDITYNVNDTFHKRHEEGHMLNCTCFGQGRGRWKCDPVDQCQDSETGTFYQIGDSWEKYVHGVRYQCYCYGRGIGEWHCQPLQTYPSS
Alexa 488-labeled human plasma FN, sequence (P02751 32-608 limits assumed): as above
T1 sequence (P02751 32-609 limits assumed): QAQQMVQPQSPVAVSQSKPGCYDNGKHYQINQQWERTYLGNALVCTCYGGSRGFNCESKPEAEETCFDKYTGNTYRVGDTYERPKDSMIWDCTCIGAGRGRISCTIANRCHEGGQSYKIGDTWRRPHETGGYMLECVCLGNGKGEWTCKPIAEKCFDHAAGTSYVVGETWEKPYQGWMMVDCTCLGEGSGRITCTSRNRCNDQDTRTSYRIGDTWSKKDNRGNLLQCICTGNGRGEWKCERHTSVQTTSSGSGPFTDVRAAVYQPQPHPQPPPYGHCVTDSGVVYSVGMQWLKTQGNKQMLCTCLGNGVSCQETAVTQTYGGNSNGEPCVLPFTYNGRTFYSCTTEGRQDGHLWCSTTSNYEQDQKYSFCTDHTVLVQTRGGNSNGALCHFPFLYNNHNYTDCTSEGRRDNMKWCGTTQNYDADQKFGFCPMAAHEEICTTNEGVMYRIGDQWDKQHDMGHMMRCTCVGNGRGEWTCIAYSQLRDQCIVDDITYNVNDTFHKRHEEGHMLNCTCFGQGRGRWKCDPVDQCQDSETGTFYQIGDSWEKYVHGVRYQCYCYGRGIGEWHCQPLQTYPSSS

Substance	IC50 [1]	inhibition of assembly of plasma fibronectin by fibroblasts ([2]; doses up to 500 nM) [%]	inhibition of fibronectin fibrillogenesis ([2]; exogenous A488-FN) [%]	IC50 [2, 5] [µM]	IC50 [2, 6] [µM]	binding affinity [3]	PEG-FUD accumulation in lungs (Western blot) [4]
FUD: 49 amino acid FUD peptide, SEQ ID NO: 1, recombinantly expressed, His-tag removed; inhibitor of fibronectin fibrillogenesis (KDQSPLAGESGETEYITEVYGNQQNPVDIDKKLPNETGFSGNMVETEDT; human) [reference compound]	0.013 µM and 0.026 µM and 0.019 µM	70	60	0.025 to 0.03	~0.03	nanomolar affinity	–
PEG-FUD: PEGylated FUD prepared as in Example 1, PEG size not stated; approximately 27 kDa by mass spectrometry, likely the 20 kDa conjugate (KDQSPLAGESGETEYITEVYGNQQNPVDIDKKLPNETGFSGNMVETEDT; not fully specified (N-terminus); also: PEG size not given here)	–	70	60	0.025 to 0.03	~0.03	–	striking increase in PEG-FUD accumulation in bleomycin-injured lungs
